# Source: patent US20220033434A1, “ANDROGEN RECEPTOR NUCLEIC ACIDS AND USES THEREOF” (Avidity Biosciences, Inc., priority 2016, published 2022)
# In the oligonucleotide strings, read from the 5' end, every base follows the letter of its sugar. An asterisk marks phosphorothioate; unmarked linkages are phosphodiester. Other units and linkages are bracketed, terminal groups are in braces. A string of capitals states the bases alone. d = 2'-deoxy (DNA); m = 2'-O-methyl; f = 2'-fluoro
# Columns and labels:
# Type in all cases: cell-based, human
# AR mRNA [1] = experiment: AR mRNA downregulation by RT-qPCR at 5 nM siRNA in 22RV1 cells; settings: 24 hrs post-transfection
# Protocol: (§1) Focusing on siRNAs targeting AR sequences exons 1 and 2, the ability of these siRNAs to downregulate AR mRNA at a concentration of 5 nM was determined by RT-qPCR. For this purpose, siRNAs were transfected into 22RV1 and LNCaP cells as described above. At 24 hrs post-transfection, RNA was harvested from cells using a Qiagen RNeasy® Plus Mini Kit or Stratec InviTrap® RNA Cell HTS96 kit. The concentration of each isolated RNA was determined via A260 measurement using a NanoDrop spectrophotometer. RNA samples were reverse transcribed to cDNA using the High Capacity RNA to cDNA Kit (Life Technologies) according to the manufacturer's instructions. cDNA samples were then quantified by qPCR using AR-specific probes and results normalized to either endogenous β-actin or PPIB using the standard 2^−ΔΔCt method. These studies identified 6 siRNAs that at a concentration of 5 nM down regulated AR mRNA in 22RV1 and LNCaP cells by more than 80% compared to controls (Table 4).
# AR-SV(2) = experiment: AR protein knock-down by Western blot after siRNA transfection in 22RV1 cells: AR-SV(2); settings: 5 nM siRNA, 50 h post transfection, compared to controls
# How it was run: (§2)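 Western read-out: AR detected with an antibody to an N-terminal region shared by full-length AR and splice variants, normalised against α-tubulin, fluorescent secondaries. Cells received 5 nM siRNA (final) by lipid transfection; harvest at 50 h for 22RV1, 72 h for LNCaP.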
# AR mRNA [2] = experiment: AR mRNA downregulation by RT-qPCR at 5 nM siRNA in LNCaP cells; settings: 24 hrs post-transfection
# Protocol: as §1
# [3] = test system: AR FL (full length AR T877A LBD mutant); experiment: AR protein knock-down by Western blot after siRNA transfection in LNCaP cells: AR FL; settings: 5 nM siRNA, 72 h post transfection, compared to controls
# How it was run: as §2
# AR-SV(3) = experiment: AR protein knock-down by Western blot after siRNA transfection in 22RV1 cells: AR-SV(3); settings: 5 nM siRNA, 50 h post transfection, compared to controls
# How it was run: as §2
# AR FL(1) = experiment: AR protein knock-down by Western blot after siRNA transfection in 22RV1 cells: AR FL(1); settings: 5 nM siRNA, 50 h post transfection, compared to controls
# How it was run: as §2
# AR mRNA [4] = experiment: AR mRNA IC50 and maximal KD, siRNA at various concentrations, C4-2 cells, qPCR probes exon junctions 1/2 or 4/5
# Protocol: as §1
# (§3) To determine the concentration required to reduce AR expression by 50% (IC50) and maximal KD activity, these siRNAs were transfected into LNCaP, C4-2, and 22RV1 cells at various concentrations starting at 100 nM. C4-2 (MD Anderson) is an LNCaP subline that has been selected for resistance against clinically used AR antagonists (Wu et al., “Derivation of androgen-independent human LNCaP prostatic cancer cell sublines: Role of bone stromal cells,” International J Cancer 1994; 57:406-412). Cells were harvested 48 h post-transfection; RNA was prepared and analyzed as stated above. For these experiments, specific AR qPCR probes located at the exon junctions 1/2 or 4/5 were used that recognize most mRNAs of relevant AR isoforms or primarily full length AR mRNA, respectively. All tested siRNAs lowered AR expression with subnanomolar potency to 70% in 22RV1 cells and to ≥90% in LNCaP and C4-2 cells (Table 5). […]
# AR mRNA [5] = experiment: AR mRNA IC50 and maximal KD, siRNA at various concentrations, 22RV1 cells, qPCR probes exon junctions 1/2 or 4/5
# Protocol: as §1, §3
# AR mRNA [6] = experiment: AR mRNA IC50 and maximal KD, siRNA at various concentrations, LNCaP cells, qPCR probes exon junctions 1/2 or 4/5
# Protocol: as §1, §3
# [7] = AR qPCR probe at exon junction 1/2, 48 h post-transfection
# [8] = AR qPCR probe at exon junction 1/2, 48 h post-transfection, read-out: IC50 (nM), C4-2, Exon 1/2
# [9] = AR qPCR probe at exon junction 4/5, 48 h post-transfection
# [10] = AR qPCR probe at exon junction 4/5, 48 h post-transfection, read-out: IC50 (nM), C4-2, Exon 4/5
# [11] = AR qPCR probe at exon junction 1/2, 48 h post-transfection, read-out: IC50 (nM), 22RV1, Exon 1/2
# [12] = AR qPCR probe at exon junction 4/5, 48 h post-transfection, read-out: IC50 (nM), 22RV1, Exon 4/5
# [13] = AR qPCR probe at exon junction 1/2, 48 h post-transfection, read-out: IC50 (nM), LNCaP, Exon 1/2
# [14] = AR qPCR probe at exon junction 4/5, 48 h post-transfection, read-out: IC50 (nM), LNCaP, Exon 4/5
Substance,% KD AR RNA 22RV1 (AR mRNA [1]),% KD AR Protein 22RV1 AR-SV(2) (AR-SV(2)),% KD AR RNA LNCaP (AR mRNA [2]),% KD AR Protein LNCaP AR FL [3],% KD AR Protein 22RV1 AR-SV(3) (AR-SV(3)),% KD AR Protein 22RV1 AR FL(1) (AR FL(1)),"max KD (%), C4-2, Exon 1/2 (AR mRNA [4]; [7])",IC50 (AR mRNA [4]; [8]),"max KD (%), C4-2, Exon 4/5 (AR mRNA [4]; [9])",IC50 (AR mRNA [4]; [10]),"max KD (%), 22RV1, Exon 1/2 (AR mRNA [5]; [7])",IC50 (AR mRNA [5]; [11]),"max KD (%), 22RV1, Exon 4/5 (AR mRNA [5]; [9])",IC50 (AR mRNA [5]; [12]),"max KD (%), LNCaP, Exon 1/2 (AR mRNA [6]; [7])",IC50 (AR mRNA [6]; [13]),"max KD (%), LNCaP, Exon 4/5 (AR mRNA [6]; [9])",IC50 (AR mRNA [6]; [14])
"XD-01816: AR siRNA with chemical modification, Id # 1984; sense X05327 (SEQ ID NO: 157), antisense X05328 (SEQ ID NO: 158) (sense mGmCfAmAfAmGfGmUfUmCfUmCfUmGfCmUfAmGfAdT*dT; antisense fUfCmUfAmGfCmAfGmAfGmAfAmCfCmUfUmUfGmCdT*dT)",60%,66%,74%,97%,69%,57%,–,–,–,–,–,–,–,–,–,–,–,–
"XD-01817: AR siRNA with chemical modification, Id # 1987; sense X05329 (SEQ ID NO: 159), antisense X05330 (SEQ ID NO: 160) (sense mAmAfGmGfUmUfCmUfCmUfGmCfUmAfGmAfCmGfAdT*dT; antisense fUfCmGfUmCfUmAfGmCfAmGfAmGfAmAfCmCfUmUdT*dT)",83%,91%,87%,99%,86%,83%,83.6%,0.021 nM,84.1%,0.023 nM,49.3%,0.059 nM,61.1%,0.043 nM,83.4%,0.018 nM,87.2%,0.017 nM
"XD-01820: AR siRNA with chemical modification, Id # 2189; sense X05335 (SEQ ID NO: 165), antisense X05336 (SEQ ID NO: 166) (sense mGmUfAmCfCmAfGmAfGmUfCmGfCmGfAmCfUmAfCdT*dT; antisense fGfUmAfGmUfCmGfCmGfAmCfUmCfUmGfGmUfAmCdT*dT)",46%,91%,59%,100%,91%,85%,–,–,–,–,–,–,–,–,–,–,–,–
"XD-01821: AR siRNA with chemical modification, Id # 2207; sense X05337 (SEQ ID NO: 167), antisense X05338 (SEQ ID NO: 168) (sense mCmUfAmCfAmAfCmUfUmUfCmCfAmCfUmGfGmCfUdT*dT; antisense fAfGmCfCmAfGmUfGmGfAmAfAmGfUmUfGmUfAmGdT*dT)",68%,80%,81%,96%,7%,73%,–,–,–,–,–,–,–,–,–,–,–,–
"XD-01825: AR siRNA with chemical modification, Id # 2814; sense X05345 (SEQ ID NO: 175), antisense X05346 (SEQ ID NO: 176) (sense mGmCfUmUfCmUfGmGfGmUfGmUfCmAfCmUfAmUfGdT*dT; antisense fCfAmUfAmGfUmGfAmCfAmCfCmCfAmGfAmAfGmCdT*dT)",91%,93%,82%,91%,95%,90%,83.5%,0.024 nM,84.6%,0.026 nM,53.5%,0.067 nM,60.7%,0.055 nM,82.5%,0.02 nM,84.9%,0.018 nM
"XD-01826: AR siRNA with chemical modification, Id # 2817; sense X05347 (SEQ ID NO: 177), antisense X05348 (SEQ ID NO: 178) (sense mUmCfUmGfGmGfUmGfUmCfAmCfUmAfUmGfGmAfGdT*dT; antisense fCfUmCfCmAfUmAfGmUfGmAfCmAfCmCfCmAfGmAdT*dT)",89%,92%,81%,91%,93%,87%,86.5%,0.049 nM,87.0%,0.046 nM,52.4%,0.146 nM,64.8%,0.057 nM,84.6%,0.041 nM,86.0%,0.035 nM
"XD-01827: AR siRNA with chemical modification, Id # 2819; sense X05349 (SEQ ID NO: 179), antisense X05350 (SEQ ID NO: 180) (sense mUmGfGmGfUmGfUmCfAmCfUmAfUmGfGmAfGmCfUdT*dT; antisense fAfGmCfUmCfCmAfUmAfGmUfGmAfCmAfCmCfCmAdT*dT)",89%,92%,86%,90%,93%,89%,83.2%,0.052 nM,85.7%,0.052 nM,38.7%,0.108 nM,54.0%,0.068 nM,81.7%,0.053 nM,84.5%,0.06 nM
